Data published in paper PMC8752837, “Structural basis of BAK activation in mitochondrial apoptosis initiation” (Nature Communications, 2022).
Residue numbers refer to the chain shown, from its start.

Columns and labels:
[1] = target: T1, Human BAK-∆TM-His6 (BAK) (Homo sapiens, UniProt Q16611); assay: Liposome permeabilization assay (ANTS/DPX dye release from LUVs): activation of WT BAK by BH3 peptides; format: biochemical; conditions: 50 nM BAK; EC50 from AUC vs peptide dose, data in Supplementary Figure 7c; 37 °C, 90 min; read-out: Liposome permeabilization EC50
T1 construct: C-terminus truncated recombinant human BAK containing C-terminal 6× histidine tag (MEAS-BAK); made in house; host or cells: E. coli T7 Express pLac I/Y
T1 sequence (Q16611 1-186 limits assumed): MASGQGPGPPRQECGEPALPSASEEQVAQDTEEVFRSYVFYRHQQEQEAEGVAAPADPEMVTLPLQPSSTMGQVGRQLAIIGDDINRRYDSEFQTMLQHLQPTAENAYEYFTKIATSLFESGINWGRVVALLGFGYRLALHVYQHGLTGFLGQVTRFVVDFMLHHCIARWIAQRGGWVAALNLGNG
Protocol: We performed liposome permeabilization assays as previously described[43]–[46]. […] We mixed the lipid film in ANTS/DPX solution by vortexing and sonication (~15 min) followed by extrusion through polycarbonate membrane of 2 μm pore size (Avanti Polar lipids) to generate homogenous large unilamellar vesicles (LUVs). We separated LUVs from free ANTS/DPX by S500 size exclusion chromatography and stored them at 4 °C in the dark. We prepared peptide and protein dilutions in 96-well black flat bottom plates (Costar) kept on ice. […] We quantified liposome permabilization by integrating area under curve (AUC) of normalized traces based on the Simpson’s equation, and analyzed that data in Excel and GraphPad Prism. AUC measurements reflect the kinetic and extent of liposome permeabilization and provide quantitative means for comparison between different experimental conditions (e.g., BAK mutants with gross or partial variation in activity).

[2] = target: T2, I81R(3) BAK (Homo sapiens, UniProt Q16611, I81R); assay: Liposome permeabilization assay: BH3 peptide activation of I81R(3) BAK receptor; format: biochemical; conditions: 200 nM protein receptor; rebuttal, earlier Figure 7c; read-out: EC50 in liposome permeabilization upon direct activation of I81R BAK
T2 construct: C-terminus truncated recombinant human BAK containing C-terminal 6× histidine tag (MEAS-BAK); made in house; host or cells: E. coli T7 Express pLac I/Y
T2 sequence (Q16611 1-186 I81R limits assumed): T1 sequence (Q16611 1-186 limits assumed) with I81R
Protocol: We next compared activation of mutant BAK receptors by WT BID BH3 and WT BAK BH3 peptide ligands. At concentrations above 1 µM, both peptide ligands would activate WT or V74A(1) BAK (Supplementary Figs. 3e, 4d, e, and Supplementary Table 1).
We performed liposome permeabilization assays as previously described[43]–[46]. […] (nickel salt) [DGS NTA(Ni), 2.5 μM final concentration in each assay] (Avanti Polar Lipids). We prepared 12.5 mM fluorophore; 8-aminonaphthalene-1, 3, 6-trisulfonic acid, disodium salt (ANTS) and 45 mM quencher; p-xylene-bis-pyridiniumbromide (DPX) in LUV buffer (10 mM HEPES pH 6.8, 200 mM KCl and 5 mM MgCl2). We mixed the lipid film in ANTS/DPX solution by vortexing and sonication (~15 min) followed by extrusion through polycarbonate membrane of 2 μm pore size (Avanti Polar lipids) to generate homogenous large unilamellar vesicles (LUVs). We separated LUVs from free ANTS/DPX by S500 size exclusion chromatography and stored them at 4 °C in the dark. We prepared peptide and protein dilutions in 96-well black flat bottom plates (Costar) kept on ice. ANTS release from permeabilized liposomes causes an increase in fluorescence, which we monitored at 37 °C for 90 min using a CLARIOSTAR microplate reader (BMG Labtech) set at excitation and emission wavelengths of 360 and 530 nm, respectively. We normalized the data relative to maximum and minimum fluorescence induced by 3% CHAPS and buffer controls, respectively. We quantified liposome permabilization by integrating area under curve (AUC) of normalized traces based on the Simpson’s equation, and analyzed that data in Excel and GraphPad Prism. AUC measurements reflect the kinetic and extent of liposome permeabilization and provide quantitative means for comparison between different experimental conditions (e.g., BAK mutants with gross or partial variation in activity). Variability in permeabilization of different liposomes is common and our analyses compare among conditions investigated with the same liposomes. […]

[3] = target: T3, I81R BAK (Homo sapiens, UniProt Q16611, I81R); assay: Isothermal titration calorimetry with mutant BAK; format: binding; conditions: rebuttal, earlier Figures 7c, S10d
T3 construct: To generate tevBAK (residues 22–186), we cleaved off the histidine tag with TEV protease; His tag (vector pNIC28-Bsa4) (N, cleaved yes); made in house; host or cells: E. coli T7 Express pLac I/Y
T3 sequence (Q16611 22-186 I81R): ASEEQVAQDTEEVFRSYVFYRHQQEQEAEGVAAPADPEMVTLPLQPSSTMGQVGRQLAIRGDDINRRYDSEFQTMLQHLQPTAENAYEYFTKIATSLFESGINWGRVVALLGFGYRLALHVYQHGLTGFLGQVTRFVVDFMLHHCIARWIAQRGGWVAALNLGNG
Protocol: Protein samples were exchanged into 20 mM HEPES, 100 mM NaCl and 1 mM TCEP prior to the experiment. Titrations were performed by first injecting 0.5 μl of 250 or 500 µM BID BH3 peptides into a solution of 20 or 50 µM BAK followed by additional 2 μl injections. […] Results were analyzed using Origin software (OriginLab) provided by MicroCal. Binding constants (KD) and thermodynamic parameters were calculated from the average of two or three individual titrations by fitting the data to a single site binding model using a nonlinear least-squares fitting algorithm.

[4] = target: T4, MEAS-BAK-His6 (Homo sapiens, UniProt Q16611); assay: Surface plasmon resonance; format: binding; conditions: 20 °C; MEAS-BAK-His6 captured on Ni-NTA HisCap chip; three-fold peptide dilution series injected in triplicate; 1:1 interaction model; read-out: SPR KD
T4 construct: C-terminus truncated recombinant human BAK containing C-terminal 6× histidine tag (MEAS-BAK); made in house; host or cells: E. coli T7 Express pLac I/Y
T4 sequence (Q16611 1-186 limits assumed): T1 sequence (Q16611 1-186 limits assumed)
Protocol: We conducted SPR experiments at 20 °C using a Pioneer FE optical biosensor (ForteBio) amd histidine-tagged MEAS-BAK-His6 immobilized on polycarboxylate hydrogel-coated gold chips preimmobilized with nitrilotriacetic acid (HisCap chips; ForteBio). We primed the chip in chelating buffer (10 mM HEPES pH 7.4, 150 mM NaCl, 50 µM EDTA, 0.005% Tween20) and preconditioned it at 10 µL/min with three 60 s injections of wash buffer (10 mM HEPES pH 8.3, 150 mM NaCl, 350 mM EDTA, 0.05% Tween20) and one 60 s injection of chelating buffer before charging with a 60 s injection of 500 µM NiCl2 in chelating buffer. After priming into binding buffer (20 mM HEPES pH 8.0, 200 mM NaCl, 1 mM TCEP, 0.01% Tween20), we injected BAK to achieve ~500 RU of captured protein. As reference cell, we charged one flow cell on the chip with Ni^2+ without adding protein. […] We included a series of buffer-only (blank) injections throughout the experiment to account for instrumental noise. […] We processed, double-referenced, solvent corrected, and analyzed the data using the software package Qdat (version 4.3.1.2, ForteBio). We determined kinetic rate constants and affinities by fitting the data to a 1:1 interaction model.

[5] = test system: BCL2allKO HCT116 cells reconstituted with Dox-inducible mC-BAK; assay: Dox-induced cell death by IncuCyte imaging of SYTOX Green uptake (autoactivation); format: cell-based, human; conditions: qVD 40 µM
Source text: For mammalian cell culture experiments, we cloned the full length human BAK cDNA into pCR 2.1 TOPO vector, mutated BAK as needed, and PCR amplified the BAK gene for cloning into the BamHI and NotI sites of pRETROX mCherry vector for retroviral transduction. Amplification and mutagenesis primers are included in Supplementary Table 4. To test direct BAK activation and BAK autoactivation in cells, we produced cells stably expressing mCherry-human BAK (mC-BAK) ± human BID (BID) on a genetic background devoid of the entire BCL-2 family repertoire (all 17 BCL-2 genes), BCL2allKO HCT116, as described by the Xu Luo laboratory. […] To enrich for populations of cells that express mC-BAK, we treated cells with low Dox dose (25 ng/mL) and fluorescence-activated cell sorted (FACS) the mCherry positive cells. […]
We seeded cells in 24-well (100,000 cells/well), 96-well (15,000 cells/well), or 384-well (10,000 cells/well) plates coated with 10 µg/mL fibronectin. After ≥24 h of attachment and recovery, we induced cell death with Dox (up to 1000 ng/mL) and monitored SYTOX Green (25 nM) uptake by Incucyte imaging. […] We monitored Incucyte imaging for up to 48 h, followed by endpoint FACS analysis to measure the extent of cell death based on SYTOX Green positive cells on FACSCalibur systems (BD Biosciences). As expected, cells with low mCherry fluorescence were refractory to cell death.

Compound | EC50 [1] [nM] | EC50 [2] [nM] | Kd [3] [nM] | Kd [4] [nM] | effect on cell death [5]
CC[C@H](C)[C@H](NC(=O)[C@H](CC(N)=O)NC(=O)[C@H](CCCNC(=N)N)NC(=O)[C@@H](NC(=O)[C@@H](NC(=O)[C@H](CC(=O)O)NC(=O)[C@H](CCC(=O)O)NC(C)=O)[C@@H](C)CC)[C@@H](C)CC)C(=O)N[C@@H](C)C(=O)N[C@@H](CCCNC(=N)N)C(=O)N[C@@H](Cc1c[nH]cn1)C(=O)N[C@@H](CC(C)C)C(=O)N[C@@H](C)C(=O)N[C@@H](CCC(N)=O)C(=O)N[C@@H](CCSC)C(=O)NCC(=O)N[C@@H](CC(=O)O)C(=O)N[C@@H](CO)C(=O)N[C@@H](CCSC)C(=O)N[C@@H](CC(=O)O)C(=O)N[C@@H](CCCNC(=N)N)C(=O)N[C@@H](CO)C(=O)N[C@@H](Cc1c[nH]c2ccccc12)C(N)=O [M(3)W(5)] | 79 ± 49 | ~5000 | 1340 | 506 ± 1 | 
CC(C)[C@H](NC(=O)c1ccc2ccccc2n1)C(=O)N[C@@H](CC(=O)O)C(=O)COc1c(F)cccc1F [qVD, reference compound] |  |  |  |  | blocked cell death
